In BigSolDB 2.1:

C[C@@H]1CC[C@@]2(OC1)O[C@H]1C[C@H]3[C@@H]4CC=C5C[C@@H](O)CC[C@]5(C)[C@H]4CC[C@]3(C)[C@H]1[C@@H]2C
solubility (mole fraction)
Settings	in n-heptanol	in n-hexanol
300.15 K	–	0.00806
302.26 K	0.0088	–
303.35 K	–	0.00875
305.45 K	0.00959	0.00905
307.65 K	0.0101	–
308.15 K	–	0.00957
309.9 K	0.0106	0.0101
312.12 K	0.0112	0.0107
312.46 K	0.0119	0.0113
313.79 K	–	0.0119
314.11 K	0.0126	–
315.8 K	0.0133	0.0126
317.35 K	–	0.0132
317.75 K	0.014	–
319.26 K	–	0.0139
320.05 K	0.0147	–
320.77 K	–	0.0147
321.07 K	0.0155	–
321.95 K	–	0.0154
323.22 K	0.0163	–
323.95 K	–	0.0161
324.65 K	0.0171	–
325.05 K	–	0.0167
325.35 K	0.0179	–
326.2 K	–	0.0174
327.45 K	0.0188	–
327.95 K	–	0.0181
328.51 K	0.0196	–
329.6 K	0.0202	0.0188
